The test system of assay [1] is HIV-1 antibody positive sera. Kind of assay: Peptide ELISA with HIV-1 antibody positive sera. In kind it is binding, human. The following applies: 33 HIV-1 antibody positive sera diluted 1/100; peptide 1 μg/well; absorbance 490 nm; positive = above mean of negative sera plus three S.D. The protocol:
FIG. 1 illustrates the reactivity of sera from HIV-1 infected and non-infected individuals to selected HIV-1 endonuclease peptides. Thirty-three HIV-1 antibody positive sera (filled symbols) and fourteen control sera (open symbols) were analyzed in ELISA with peptides representing the HIV-1 endonuclease protein (6). Amino acid sequences were derived from the HIV-1 consensus sequence and are shown at the bottom of the picture (abscissa). Uppercase letters indicate consensus amino acids, whereas less conserved amino acids are indicated with lowercase letters. Absorbance values at 490 nm are indicated in the ordinate. Three of the sera belonged to infected individuals classified as CDC 1 (7), thirteen to CDCII, seven to CDC III and ten to CDC IV. Becaused reactivity to other regions than the one represented by End 10 was very low, only results of a selected number of peptides is shown in the figure. FIG. 2 illustrates the reactivity of HIV-1 antobidy positive and control sera to an End 10 set of 18 glycine (G) substitution peptides. Filled symbols show mean optical density for 13 antibody positive sera. The corresponding values for four negative sera are shown by open symbols. Vertical bars represent standard deviation values. The mean reactivity to intact peptide End 10 was chosen to represent 100% of activity and reactivity to the substituted peptides is expressed in relation to this. […]
On the technique in general: An ELISA detects its analyte on a solid surface through an enzyme-linked reagent.

The subject of assay [2] is sera obtained from HIV-2 infected individuals. Kind of assay: Peptide ELISA with sera from HIV-2 infected individuals. The format is binding, human. The note with it: data not shown. As to the method:
The peptide ELISA was performed as follows. Microtiter plate wells (Linbro, Flow, Scotland) were coated with peptide (1 μg/well) resuspended in 0.01 M carbonate buffer at room temperature overnight. Thereafter, the plates wells were blocked with 5% bovine serum albumin. 100 μl of reagents were used per well. Five washings (0.9% NaCl and 0.005% Tween 20 in distilled water) were performed between the different steps of the ELISA procedure. Positive sera and controls were diluted 1/100 and incubated in the plates for one hour at 37° C. Peroxidase conjugated immunoglobulins to human IgG y-chains (Dakopatts; Denmark) diluted 1/2000 were added (1 hour, 37° C.). 1,2 phenylene diaminedihydrochloride was used as substrate. The reaction was allowed to continue for ten minutes and then stopped with 3 M H2 SO4. […] The mean optic density plus three times S.D. for peptide End 10 was 0.8.
The corresponding region in the genome of HIV-2 (Table 1) and simian immunodeficiency virus (SIV) is also very conserved. […] Some amino-acid stretches are, however, completely conserved among the different serotypes. Because of this observation, the HIV-1 peptide End 10 was also tested with 30 sera obtained from HIV-2 infected individuals.

“ETGQETAYFLLKLAGRWPVK [End 10, 20-residue peptide of HIV-1 endonuclease, starting at position 655 of the pol consensus]”: the “reactivity in ELISA with HIV-1 antibody positive sera” value in assay [1] was “reacted strongly”. Besides, in assay [2] (30 HIV-2 sera), the “intensity of the reactions with HIV-2 sera relative to HIV-1 sera” value is “comparable”. Also, in assay [2] (30 sera from HIV-2 infected individuals), the “reactivity in ELISA with HIV-2 sera” value is “reacted strongly”.

These data come from patent US5229364A, “Polypeptides derived from the human immunodeficiency virus endonuclease protein” (priority 1991, dated 1993).
